Data as given in patent publication US9556165B2 (priority 2012, dated 2017).
≈ marks a conversion by molar mass, not a printed value. Like-named read-outs stand apart in the source and are kept apart here.

Experiments:
Format in all cases: cell-based
[1] = system: P. aeruginosa 2297 (AmpC wt); test: MIC determination, broth microdilution (CLSI); details: Pseudomonas aeruginosa, strain 7
E. coli ATCC25922 = test: MIC determination, broth microdilution (CLSI); details: Escherichia coli, ATCC25922, strain 1
K. pneumoniae 60 = test: MIC determination, broth microdilution (CLSI); details: Klebsiella pneumoniae, 60, strain 2
P. aeruginosa PAO1 = test: MIC determination, broth microdilution (CLSI); details: Pseudomonas aeruginosa, PAO1, strain 6
M. morganii 126/3048 = test: MIC determination, broth microdilution (CLSI); details: Morganella morganii, 126/3048, strain 5
E. cloacae 34654 = test: MIC determination, broth microdilution (CLSI); details: Enterobacter cloacae, 34654, strain 3
E. coli J62 = test: MIC determination, broth microdilution (CLSI); details: Escherichia coli, J62, strain 17; broth microdilution; read-out: MIC strain 17 (E. coli J62)
[2] = system: P. aeruginosa 2297-con (AmpC derepressed); test: MIC determination, broth microdilution (CLSI); details: Pseudomonas aeruginosa, read-out: strain 8 MIC, strain 8
S. pneumoniae 113 = test: MIC determination, broth microdilution (CLSI); details: Streptococcus pneumoniae, 113, strain 13; broth microdilution; read-out: MIC strain 13 (S. pneumoniae 113)
S. aureus 133 = test: MIC determination, broth microdilution (CLSI)
C. freundii K21/3034 = test: MIC determination, broth microdilution (CLSI); details: Citrobacter freundii, K21/3034, strain 4
A. baumannii ATCC15308 = test: MIC determination, broth microdilution (CLSI); details: Acinetobacter baumannii, ATCC15308, strain 9
E. coli J62-TEM-3 = test: MIC determination, broth microdilution (CLSI); details: Escherichia coli, J62TEM3, read-out: MIC strain 18 (E. coli J62-TEM-3), strain 18; broth microdilution
H. influenzae ATCC 49247 = test: MIC determination, broth microdilution (CLSI); details: Haemophilus influenzae, ATCC49247, strain 12; broth microdilution; read-out: MIC strain 12 (H. influenzae ATCC 49247)
Bacteria = test: MIC determination in combination with β-lactamase inhibitors (constant 4 μg/mL)
B. fragilis 6688 = test: MIC determination, broth microdilution (CLSI); details: Bacteroides fragilis, 6688, strain 15; broth microdilution; read-out: MIC strain 15 (B. fragilis 6688)
S. maltophilia ICB7569 = test: MIC determination, broth microdilution (CLSI); details: Stenotrophomonas maltophilia, ICB7569, strain 10
[3] = Staphylococcus aureus, 133, strain 11, read-out: strain 11 MIC
[4] = Staphylococcus aureus, 133, strain 14, broth microdilution, read-out: MIC strain 14 (S. aureus 133)

Compound | MIC [1] [µg/mL] | MIC (E. coli ATCC25922) [µg/mL] | MIC (K. pneumoniae 60) [µg/mL] | MIC (P. aeruginosa PAO1) [µg/mL] | MIC (M. morganii 126/3048) [µg/mL] | MIC (E. cloacae 34654) [µg/mL] | MIC (E. coli J62) [µg/mL] | MIC [2] [µg/mL] | MIC (S. pneumoniae 113) [µg/mL] | MIC (S. aureus 133; [3]) [µg/mL] | MIC (S. aureus 133; [4]) [µg/mL] | MIC (C. freundii K21/3034) [µg/mL] | MIC (A. baumannii ATCC15308) [µg/mL] | MIC (E. coli J62-TEM-3) [µg/mL] | MIC (H. influenzae ATCC 49247) [µg/mL] | MIC strain 19 (E. coli J62-TEM-3 + 4 μg/mL clavulanic acid) (Bacteria) [µg/mL] | MIC strain 20 (E. coli J62-TEM-3 + 4 μg/mL sulbactam) (Bacteria) [µg/mL] | MIC strain 21 (E. coli J62-TEM-3 + 4 μg/mL tazobactam) (Bacteria) [µg/mL] | MIC (B. fragilis 6688) [µg/mL] | MIC (S. maltophilia ICB7569) [µg/mL]
CNC(=N)c1ccc(OCCO/N=C(\C(=O)N[C@@H]2C(=O)N(S(=O)(=O)O)[C@H]2C)c2csc(N)n2)cc1 [Example 68, (2S,3S)-3-{[(2Z)-2-(2-Amino-1,3-thiazol-4-yl)-2-({2-[4-(N-methylcarbamimidoyl)-phenoxy]ethoxy}imino)acetyl]amino}-2-methyl-4-oxoazetidine-1-sulfonic acid] | 8 (≈ 15.2 µM) | 0.125 (≈ 0.238 µM) | 0.25 (≈ 0.476 µM) | 2 (≈ 3.81 µM) | 0.125 (≈ 0.238 µM) | 0.125 (≈ 0.238 µM) | 0.25 (≈ 0.476 µM) | 32 (≈ 60.9 µM) | 0.5 (≈ 0.951 µM) | ≤ 0.063 | 2 (≈ 3.81 µM) | 0.125 (≈ 0.238 µM) | 2 (≈ 3.81 µM) | 16 (≈ 30.4 µM) | 0.125 (≈ 0.238 µM) | 0.125 | 0.25 | 0.25 | 8 (≈ 15.2 µM) | –
C[C@H]1[C@H](NC(=O)/C(=N\OCCOc2cc(C(=N)N)nn2C)c2csc(N)n2)C(=O)N1S(=O)(=O)O [Example 71, (2S,3S)-3-{[(2Z)-2-(2-Amino-1,3-thiazol-4-yl)-2-({2-[(3-carbamimidoyl-1-methyl-1H-pyrazol-5-yl)oxy]ethoxy}imino)acetyl]amino}-2-methyl-4-oxoazetidine-1-sulfonic acid] | 32 (≈ 62.1 µM) | 2 (≈ 3.88 µM) | 1 (≈ 1.94 µM) | 16 (≈ 31 µM) | 1 (≈ 1.94 µM) | 4 (≈ 7.76 µM) | 8 (≈ 15.5 µM) | – | 0.5 (≈ 0.97 µM) | 0.25 (≈ 0.485 µM) | – | 1 (≈ 1.94 µM) | 4 (≈ 7.76 µM) | 32 (≈ 62.1 µM) | 1 (≈ 1.94 µM) | 2 | 4 | 4 | 8 (≈ 15.5 µM) | 4 (≈ 7.76 µM)
CC1(C)[C@H](NC(=O)/C(=N\OC(COc2ccc(C(=N)N)cc2)C(N)=O)c2csc(N)n2)C(=O)N1OS(=O)(=O)O (stereo partly drawn) [Example 75, 2-({[(1Z)-1-(2-Amino-1,3-thiazol-4-yl)-2-{[(3S)-2,2-dimethyl-4-oxo-1-(sulfooxy)azetidin-3-yl]amino}-2-oxoethylidene]amino}oxy)-3-(4-carbamimidoylphenoxy)propanamide] | 16 (≈ 27.4 µM) | 0.25 (≈ 0.428 µM) | 0.5 (≈ 0.855 µM) | 8 (≈ 13.7 µM) | 0.25 (≈ 0.428 µM) | 0.5 (≈ 0.855 µM) | 0.5 (≈ 0.855 µM) | 8 (≈ 13.7 µM) | – | – | 16 (≈ 27.4 µM) | 0.125 (≈ 0.214 µM) | 2 (≈ 3.42 µM) | 1 (≈ 1.71 µM) | – | 0.25 | 0.5 | 0.5 | – | 4 (≈ 6.84 µM)
CC1(C)[C@H](NC(=O)/C(=N\OCCOc2ccc(C(=N)N3CCNCC3)cc2)c2csc(N)n2)C(=O)N1OS(=O)(=O)O [Example 80, (2Z)-2-(2-Amino-1,3-thiazol-4-yl)-N-[(3S)-2,2-dimethyl-4-oxo-1-(sulfooxy)azetidin-3-yl]-2-[(2-{4-[imino(piperazin-1-yl)methyl]phenoxy}ethoxy)imino]ethanamide] | 16 (≈ 26.2 µM) | 0.25 (≈ 0.409 µM) | 0.5 (≈ 0.819 µM) | 16 (≈ 26.2 µM) | – | 1 (≈ 1.64 µM) | 0.5 (≈ 0.819 µM) | 8 (≈ 13.1 µM) | – | – | 4 (≈ 6.55 µM) | 0.25 (≈ 0.409 µM) | 2 (≈ 3.28 µM) | 16 (≈ 26.2 µM) | – | 0.5 | 0.5 | 0.5 | – | 32 (≈ 52.4 µM)
CC1(C)[C@H](NC(=O)/C(=N\O[C@@H](COc2ccc(C(=N)N[C@H]3CCNC3)cc2)C(=O)O)c2csc(N)n2)C(=O)N1OS(=O)(=O)O [Example 93] | 1 (≈ 1.53 µM) | ≤ 0.063 | 0.125 (≈ 0.191 µM) | 1 (≈ 1.53 µM) | – | 0.125 (≈ 0.191 µM) | 0.125 (≈ 0.191 µM) | 1 (≈ 1.53 µM) | – | – | 32 (≈ 48.9 µM) | ≤ 0.063 | 1 (≈ 1.53 µM) | 4 (≈ 6.11 µM) | – | 0.125 | 0.125 | 0.125 | – | 4 (≈ 6.11 µM)
